Source: publication PMC8795149, “Characterization of a novel non-steroidal glucocorticoid receptor agonist optimized for topical treatment” (Scientific Reports, 2022)

Key:
[1] = system: HPA axis; parameters: method as in PMID 3553247; settings: topical; cited from earlier work
[2] = system: TPA-induced skin inflammation; assay: TPA study in mice, CP applied on the non-inflamed ear; type: in vivo, mouse; settings: CP applied topically on the non-inflamed ear, tested dose range 0.03–3 µg/ear
Protocol: Figure S6. Effect of topically applied CP on TPA induced ear biopsy weight in mice (upper panel). Treatment scheme can be seen in the lower panel. Ear oedema was induced by TPA on the left ear on day 1, 3, 5, 8 and 10 and CP was topically administered daily on either left or right ear on day 8 to 11. The left ear biopsy weight was measured on day 11. Significant effect was seen also when CP was administered on the right ear at the 2 highest doses, indicating contribution to the local effect, by systemic exposure

[3] = target: T1, human Mineralocorticoid Receptor (Homo sapiens, UniProt P08235); assay: MR antagonist assay, MR reporter assay; type: cell-based
T1 construct: host or cells: HEK293 (DSMZ ACC 305)
T1 sequence (P08235 726-964 limits assumed): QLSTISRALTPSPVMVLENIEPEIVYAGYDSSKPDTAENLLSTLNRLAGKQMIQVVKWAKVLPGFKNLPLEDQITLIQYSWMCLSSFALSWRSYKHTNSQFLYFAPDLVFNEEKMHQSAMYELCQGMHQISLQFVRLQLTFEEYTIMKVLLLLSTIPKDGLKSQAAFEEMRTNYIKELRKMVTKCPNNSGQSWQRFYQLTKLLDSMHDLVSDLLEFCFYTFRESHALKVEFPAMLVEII
Protocol: Assays were performed at Indigo Biosciences according to standard protocols. In brief, MR-luciferase reporter cells were incubated with medium containing charcoal-stripped fetal bovine serum and incubated with test and reference compounds for 24 h before measuring luminescence. Data were fitted by the means of four parameter logistic regression.
LEO 134310 and LEO 134988 were tested in the human Mineralocorticoid Receptor in cellular GAL4 reporter gene assays. All assays were done in HEK293 cells (DSMZ ACC 305). The plasmids used in Phenex’ GAL4 assay system are derivatives of Stratagene’s M2H plasmids: the reporter plasmid pFR-Luc (contains a synthetic promoter with five tandem repeats of the yeast GAL4 binding sites that control expression of the Photinus pyralis (American firefly) luciferase gene), and pCMV-BD (for fusions of nuclear receptor ligand binding domains to the DNA-binding domain of the yeast protein GAL4). In order to improve experimental accuracy, a second reporter - Renilla reniformis luciferase, driven by a constitutive promoter - was included as internal control. Using the control reporter (pRL-CMV) allows correcting for variations in experimental handling e.g. transfection efficacy, cell viability, pipetting errors, cell lysis efficiency and assay efficiency. The compounds were tested in 9 concentrations in triplicates.

[4] = Hepatocyte stability (rat); type: in vitro ADME; settings: predicted hepatic clearance, well stirred model
Protocol: (§1) Compounds (1.0 µM) were incubated in duplicates with rat, dog, minipig or human hepatocytes (1.0 million cells/mL) in phosphate buffer, in 96-well plates for 120 min (37 °C). Reactions were stopped by addition of cold acetonitrile, at 0, 10, 30, 60, and 120 min, and dispensed into cold acetonitrile to stop the reactions. Plates were centrifuged for 30 min and samples were analysed using liquid chromatography coupled to a time-of-flight mass spectrometer. Compound depletion over time was used to estimate the elimination rate constant, from which the apparent intrinsic clearance (CLapp), and half-life (t½), were calculated.

[5] = target: T2, recombinant human full-length GR (Homo sapiens, UniProt P04150); assay: GR binding assay (fluorescence polarization); settings: Fluormone GS1
T2 construct: 4 nM recombinant human full-length GR (Thermo Fisher); purchased Thermo Fisher
T2 sequence (P04150 1-777): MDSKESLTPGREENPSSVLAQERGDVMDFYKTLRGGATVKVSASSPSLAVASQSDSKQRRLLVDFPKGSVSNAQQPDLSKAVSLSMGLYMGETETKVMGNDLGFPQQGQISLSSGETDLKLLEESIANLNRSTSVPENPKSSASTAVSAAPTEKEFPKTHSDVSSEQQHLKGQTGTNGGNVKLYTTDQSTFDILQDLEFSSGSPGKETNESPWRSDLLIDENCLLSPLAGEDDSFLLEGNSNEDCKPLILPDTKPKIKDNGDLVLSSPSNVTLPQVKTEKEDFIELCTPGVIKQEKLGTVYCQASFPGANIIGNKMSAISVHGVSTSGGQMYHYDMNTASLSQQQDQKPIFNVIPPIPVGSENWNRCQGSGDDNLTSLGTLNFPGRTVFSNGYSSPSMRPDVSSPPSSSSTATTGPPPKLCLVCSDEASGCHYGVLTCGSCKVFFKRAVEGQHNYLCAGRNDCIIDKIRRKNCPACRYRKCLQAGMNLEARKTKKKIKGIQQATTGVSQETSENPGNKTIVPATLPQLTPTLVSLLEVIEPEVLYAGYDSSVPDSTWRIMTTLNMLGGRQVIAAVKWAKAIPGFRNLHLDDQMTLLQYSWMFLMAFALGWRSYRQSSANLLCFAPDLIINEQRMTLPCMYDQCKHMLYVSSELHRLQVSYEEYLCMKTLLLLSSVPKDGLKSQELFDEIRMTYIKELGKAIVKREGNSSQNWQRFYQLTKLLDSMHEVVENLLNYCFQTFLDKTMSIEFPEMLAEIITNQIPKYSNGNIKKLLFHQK
Protocol: Binding of GR agonists to human GR was evaluated in a fluorescence polarization assay. 2.5 nM Fluormone GS1 (Thermo Fisher) and 4 nM recombinant human full-length GR (Thermo Fisher) were incubated in the presence of individual test and control compounds. Changes in polarization values were used to determine the relative affinity of test compounds for the GR.

[6] = Hepatocyte stability (minipig); type: in vitro ADME; settings: predicted hepatic clearance, well stirred model
Protocol: as §1

[7] = system: PPAR-alpha, LXR-beta, RAR-alpha, RXR-alpha, ER-alpha, PR, AR, ER-beta and TR; assay: Selectivity screening on nuclear receptors, radioligand binding (CEREP); parameters: species or system human; settings: 10µM; greater than 25% displacement considered significant
Protocol: Selectivity screening on nuclear receptors – Studies were performed at CEREP using their proprietary assays for human PPARalpha, LXRbeta, RARalpha, RXRalpha, ERalpha, ERbeta, progesterone receptor, androgen receptor and thyroid hormone receptor employing specific, radiolabeled agonist ligands. Interactions leading to greater than 25% displacement of the radiolabeled agonist ligand were considered significant. Concentrations of LEO 134310 and LEO 134998 were 10µM.

[8] = system: 8 ion channels, 40 kinases, 2 phosphatases, up to 163 G-protein coupled receptors; assay: Off-target panels (Eurofins IonChannelProfiler, KinaseProfiler, GPCRProfiler); settings: 10 µM
[9] = Predicted clearance and half-life in man by allometric scaling of clearance in dogs; parameters: species or system human
Source text: To evaluate allometric scaling, actual clearance in dog and man were extracted from the literature for 6 ester drugs[27]–[38].

[10] = Hepatocyte stability (human); type: in vitro ADME; settings: predicted hepatic clearance, well stirred model
Protocol: as §1

SMILES | Effect on morning plasma cortisol [1] | Dose from which significant anti-inflammatory effect due to systemic exposure was seen [2] [µg/ear] | Antagonist activity on MR [3] | In vitro (hepatocytes) CLH [4] | EC50 [5] [nM] | In vitro (hepatocytes) CLH [6] | Interaction with nine nuclear hormone receptors in specific binding assays [7] | Off-target activity in ion channel, kinase, phosphatase and GPCR panels [8] | Predicted clearance in man ([9]; allometric scaling of clearance in dogs, scaling factor 0.75) [mL/min/kg] | Predicted half-life in man ([9]; corresponding to predicted clearance) [min] | In vitro (hepatocytes) CLH [10]
CCC(=O)O[C@]1(C(=O)CCl)[C@@H](C)C[C@H]2[C@@H]3CCC4=CC(=O)C=C[C@]4(C)[C@@]3(F)[C@@H](O)C[C@@]21C [CP, Clobetasol Propionate] | reduce morning plasma cortisol significantly | ≥ 1 |  |  |  |  |  |  |  |  | 
C[C@H](NC(=O)[C@H]1CCCO1)[C@H](Oc1ccc(C(=O)O[C@H]2CCCN(C(=O)[C@H]3COC(=O)C3)C2)cc1)c1ccc(C2CC2)cc1 [LEO 134310] |  |  | no antagonist activity on MR | 57 (n = 1) mL/min/kg | 14 | > 35 (n = 1) mL/min/kg | no significant interaction | no off-target activity was identified | 300 | < 5 | > 18 (n = 1) mL/min/kg
